Tests used:
[1] = system: Raji (of Burkitt lymphoma) cells; assay: Cell proliferation (CellTiter-Glo) and cytotoxicity (CellTox Green) test, Raji; assay type: cell-based; settings: for effect on cells (cell proliferation / cell death): 48 hours of treatment
Description: (§1) The molecules were tested at 7 different concentrations: 50 μM, 25 μM, 12.5 μM, 6.25 μM, 3.125 μM, 1.56 μM, 0.75 μM, in culture with lymphoid tumor (myeloma, lymphoma) cell lines.
(§2) Tested cell lines: • MM.1S (of multiple myeloma), cultivated in RPMI-1640 medium, 10% FBS, L-Glutamine, AA • RPMI-8226 (of multiple myeloma), cultivated in RPMI-1640 medium, 10% FBS, L-Glutamine, AA; • Raji (of Burkitt lymphoma), cultivated in RPMI-1640 medium, 10% FBS, L-Glutamine, AA; • MRC5 (of pulmonary fibroblasts), cultivated in DMEM medium, 10% FBS, L-Glutamine, AA, Pyruvate Sodium, NEAA.
(§3) After 48 hours of treatment, drug-induced cellular death was estimated by measuring the intensity of the fluorescence signal after staining the dead cells using a known method (CellTox Green Dye—Promega).
(§4) Soon afterwards, the number of live cells was evaluated by adding CellTiter Glo P (Promega) reagent, through which the cell lysis and the luminescence signal are directly proportional to the ATP levels in each sample.
(§5) 24 hours prior to the addition of the compound under examination, the cells resuspended at adequate concentrations were seeded in 384-well flat clear bottom black polystyrene TC-treated microplates (Corning 3764).
(§6) Each well contained 20 μL of cell suspension. The day after, […] of the molecules under examination, with integrated CellTox (Promega G8731) green dye, were added to each sample to obtain the desired treatment concentrations.
(§7) The seeding of the cells, the preparation of the serial dilutions, and the addition of the molecules to the cells were performed using an automated liquid pipetting platform (Gilson Pipetmax).
(§8) 48 hours after the treatment, the intensity of the global green fluorescence in each well was quantified using Biotek Cytation 5. For each sample, four images were taken to cover the whole area of the well. Image merging, processing and background removal were performed using the Gen5 software. Immediately after the fluorescence reading, 30 μL of CellTiter Glo reagent (Promega G7571) just prepared were added to each well, and each sample was mixed 5 times. Ten minutes later, a luminescence reading was taken. Three technical replicates for each condition under examination were plated.
(§9) CellTiter-Glo is a reagent used for determining the number of viable cells in a culture based on the quantification of ATP, which signals the presence of metabolically active cells.
(§10) The reagent is added directly to the samples, resulting in cell lysis and generation of a luminescent signal that is proportional to the quantity of ATP. The luminescence signal is quantified using Promega Glo-Max Discover.
(§11) The CellTox green dye measures the changes that have occurred in the integrity of the membrane following cell death. The test uses a dye which is excluded from viable cells while coloring the DNA of dead cells. When the dye binds to the DNA of the compromised cells, the fluorescent properties of the dye are enhanced, whereas viable cells produce no perceptible increase in fluorescence. Therefore, the fluorescent signal produced by the dye is proportional to cytotoxicity. Fluorescence intensity (GFI) is quantified by means of a Biotek Cytation 5 wide-field automated digital microscope, led cube 465 nm, filter cube excitation 469±25 nm, emission 525±25 nm.
(§12) Cell viability is calculated as relative cell count (R): […]
(§13) where T is the number of cells in the treated sample and U is the number of cells in the untreated sample. […]

[2] = system: MM.1S (of multiple myeloma) cells; assay: Cell proliferation (CellTiter-Glo) and cytotoxicity (CellTox Green) test, MM.1S; assay type: cell-based; settings: MM.1S cells; for effect on cells (cell proliferation / cell death): 48 hours of treatment
Description: as §1, §2, §3, §4, §5, §6, §7, §8, §9, §10, §11, §12, §13

[3] = system: aggressive human melanoma cell lines; settings: cited from earlier work
[4] = system: MRC5 (of pulmonary fibroblasts) non-tumor cells; assay: Cell proliferation (CellTiter-Glo) and cytotoxicity (CellTox Green) test, MRC5 non-tumor control; assay type: cell-based; settings: for IC50 relative to the maximum concentration tested: highest tested concentration 50 μM
Description: The MRC5 cell line was used as a control to evaluate if these molecules were toxic also towards non-tumor cells.
Soon afterwards, the number of live cells was evaluated by adding CellTiter Glo P (Promega) reagent, through which the cell lysis and the luminescence signal are directly proportional to the ATP levels in each sample. […]

[5] = system: RPMI-8226 (of multiple myeloma) cells; assay: Cell proliferation (CellTiter-Glo) and cytotoxicity (CellTox Green) test, RPMI-8226; assay type: cell-based; settings: RPMI-8226 cells; for effect on cells (cell proliferation / cell death): 0.75-50 μM, 48 hours of treatment
Description: The molecules were tested at 7 different concentrations: 50 μ[…], in culture with lymphoid tumor (myeloma, lymphoma) cell lines. Tested cell lines: • MM.1S (of multiple myeloma), cultivated in RPMI-1640 medium, 10% FBS, L-Glutamine, AA • RPMI-8226 (of multiple myeloma), cultivated in RPMI-1640 medium, 10% FBS, L-Glutamine, AA; • Raji (of Burkitt lymphoma), cultivated in RPMI-1640 medium, 10% FBS, L-Glutamine, AA; • MRC5 (of pulmonary fibroblasts), cultivated in DMEM medium, 10% FBS, L-Glutamine, AA, Pyruvate Sodium, NEAA. […] After 48 hours of treatment, drug-induced cellular death was estimated by measuring the intensity of the fluorescence signal after staining the dead cells using a known method (CellTox Green Dye-Promega). Soon afterwards, the number of live cells was evaluated by adding CellTiter Glo P (Promega) reagent, through which the cell lysis and the luminescence signal are directly proportional to the ATP levels in each sample. 24 hours prior to the addition of the compound under examination, the cells resuspended at adequate concentrations were seeded in 384-well flat clear bottom black polystyrene TC-treated microplates (Corning 3764). Each well contained 20 μL of cell suspension. […] The seeding of the cells, the preparation of the serial dilutions, and the addition of the molecules to the cells were performed using an automated liquid pipetting platform (Gilson […]). 48 hours after the treatment, the intensity of the global green fluorescence in each well was quantified using Biotek Cytation 5. […] Immediately after the fluorescence reading, 30 μL of CellTiter Glo reagent (Promega G7571) just prepared were added to each well, and each sample was mixed 5 times. Ten minutes later, a luminescence reading was taken. […] CellTiter-Glo is a reagent used for determining the number of viable cells in a culture based on the quantification of ATP, which signals the presence of metabolically active cells. The reagent is added directly to the samples, resulting in cell lysis and generation of a luminescent signal that is proportional to the quantity of ATP. The luminescence signal is quantified using Promega Glo-Max Discover. […] When the dye binds to the DNA of the compromised cells, the fluorescent properties of the dye are enhanced, whereas viable cells produce no perceptible increase in fluorescence. […] Fluorescence intensity (GFI) is quantified by means of a Biotek Cytation 5 wide-field automated digital microscope, led cube 465 nm, filter cube excitation 469±25 nm, emission 525±25 nm. Cell viability is calculated as relative cell count (R): R=T/U×100 where T is the number of cells in the treated sample and U is the number of cells in the untreated sample. […] Cell death is measured as green fluorescence intensity (GFI).

[6] = system: MOLT-4 cell line of human leukemia; settings: through inhibition of the mTOR/PI3K/Akt signalling pathway; cited from earlier work
[7] = highest tested concentration 50 μM

Structure (SMILES)	anti-proliferative activity ([1]; 0.75-50 μM)	IC50 relative to the maximum concentration tested [1, 7]	anti-proliferative activity ([2]; 0.75-50 μM)	IC50 relative to the maximum concentration tested [2, 7]	pro-apoptotic effect [3]	IC50 relative to the maximum concentration tested [4]	effect on cells (cell proliferation / cell death) [5]	effect on cells (cell proliferation / cell death) ([1]; 0.75-50 μM)	effect on cells (cell proliferation / cell death) ([2]; 0.75-50 μM)	anti-proliferative activity ([4]; 0.75-50 μM)	effect on cell proliferation and apoptosis [6]	IC50 ([1]; after 72 hours of culture) [µM]	IC50 ([2]; after 72 hours of culture) [µM]	IC50 ([5]; after 72 hours of culture) [µM]
C=C1C(=O)O[C@H]2CC(=C)[C@H]3CC[C@@](C)(O)[C@@H]3C[C@H]12 [Inuvisculide]	low anti-proliferative activity	> the maximum concentration	low anti-proliferative activity	> the maximum concentration	strong pro-apoptotic effect	> the maximum concentration	cytostatic effect							
C=C1C(=O)O[C@@H]2C[C@H](C)C(CCC(C)=O)=CC[C@H]12 [Tomentosin]					strong pro-apoptotic effect	> the maximum concentration	cytostatic effect	cytotoxic effect	cytotoxic effect	low anti-proliferative activity	inhibits cell proliferation and induces apoptosis			
N.N.[Cl][Pt][Cl] [cysplatin, Cisplatin]							reduced cell proliferation and increased cell death	reduced cell proliferation and increased cell death	reduced cell proliferation and increased cell death			25.7	12.3	14.9
